Assays:
[1] = volatility of prior-art nitrification inhibitor; type: physicochemical; details: stated as disadvantageous for long-term applications
[2] = tested on: nitrification; test: inhibition of nitrification in soil incubation test; type: cell-based, soil microbial biomass; details: 100 g soil, 10 mg ammoniumsulfate-N, 20° C., 14 days, best obtained NI value
Experimental: The compounds of the invention have been tested as follows in terms of the inhibition of nitrification: 100 g soil is filled into 500 ml plastic bottles (e.g. soil sampled from the field) and is moistened to 50% water holding capacity. The soil is incubated at 20° C. for two weeks to activate the microbial biomass. 1 ml test solution, containing the compound in the appropriate concentration (usually 0.3 or 1% of nitrogen N), or DMSO and 10 mg nitrogen in the form of ammoniumsulfate-N is added to the soil and everything mixed well. Bottles are capped but loosely to allow air exchange. The bottles are then incubated at 20° C. for 0 and 14 days. For analysis, 300 ml of a 1% K2SO4-solution is added to the bottle containing the soil and shaken for 2 hours in a horizontal shaker at 150 rpm. Then the whole solution is filtered through a filter (Macherey-Nagel Filter MN 807¼). Ammonium and nitrate content is then analyzed in the filtrate in an autoanalyzer at 550 nm (Merck, AA11). The inhibition (NI @ a specified concentration) is calculated as follows: [formula]

| SMILES | volatility [1] | NI* @ 0.3% ([2]; compound at 0.3% of nitrogen N) | NI* @ 1% ([2]; compound at 1% of nitrogen N) |
| --- | --- | --- | --- |
| CCOc1cc(C)[nH]n1 [3-ethoxy-5-methylpyrazole] | high volatility |  |  |
| C#CCOc1ccn[nH]1 [Compound 1] |  | 60.6 | 74.7 |

— US11498885B2, “Use of pyrazole propargyl ethers as nitrification inhibitors” (BASF SE, priority 2018, dated 2022)
